Experimental data as given in patent publication US20050049273A1, “Acridone derivatives as anti-herpesvirus agents” (priority 2003, published 2005).
pEC50: −log10 of the molar value.

Assays:
[1] = system: Epstein-Barr Virus (EBV) early antigen; settings: published work; cited from earlier work
[2] = system: HCMV; experiment: HCMV plaque-elimination assay in HEL cells; assay type: cell-based, HCMV (Towne)
Method: Virus and cell growth inhibition assays. Established virus culture techniques were used (E.-S. Huang, and T Kowalnick, Diagnosis of human cytomegalovirus infection: laboratory approaches, in Molecular Aspects of Human Cytomegalovirus Diseases (Becker,Y., Daria, G., and Huang, E.-S. eds.), Springer-Verlag, Berlin, pp. 225-255 (1993); Akanitapichat et al., Antiviral Research 45: 123-134 (2000)) but with the following modifications. For the HCMV plaque-elimination assay, HEL cells were plated in standard medium at 60,000 per cm^2 and infected the following day with 50-100 PFU HCMV for 90 minutes with occasional agitation. The inoculate was replaced with maintenance medium containing 5% (v/v) fetal calf serum and test agents as indicated (see below). After an additional 6-10 days of culture, cells were fixed with formal saline (10% formalin in phosphate-buffered saline; PBS), stained with 0.1% (w/v) toluidine blue in PBS and plaques were scored using an inverted light microscope at 40x magnification (FIGS. 2A and 3). For ED50 determination, the value was interpolated from dose-response data and is the concentration of compound that reduced plaque formation by 50% relative to control under the specified condition.

[3] = system: HEL Cells; experiment: HEL cells replicated in presence of compound for 12 days (morphology, replication rate); assay type: cell-based, human; settings: 0.5 or five micromolar for 12 days (four passages)
Description: HEL Cells were replicated in the presence of either 0.5 or five micromolar compound 2 for 12 days (four passages) then they were compared to untreated HEL cells as a host for HCMV replication in the presence or absence of the drug. […] Cultures were infected with ten-times the viral load used for plaque assay and were fixed, stained and photographed after seven days of infection (panel B). A detailed method is described in the examples below. The horizontal rows labeled as HEL, HEL (0.5) and HEL (5.0) represent cells cultured in the absence or presence of 0.5 and 5 micromolar 2 respectively. Labeled columns indicate mock-infected (M), infected (I) and treated after viral infection with the same two concentrations of the compound.
(§1) To examine whether pre-treatment of cells influenced anti-HCMV activity of 1-hydroxy-3,7-dimethoxyacridone (2), a cytopathogenicity (CPE) reduction assay was used. The protocol was like the plaque-elimination assay except HEL cells were replicated in test compound (3-12 days or from 1-4 passages) prior to infection, cultures were infected with 500-1000 PFU HCMV and after five days, cells were stained with 0.8% (w/v) crystal violet in 50% ethanol in order to achieve contrast for photography.

[4] = HEL cell growth inhibition (Sulforhodamine B protein-dye binding); assay type: cell-based, human; settings: human; cell growth inhibition, two days of continuous treatment
Method: (§2) The effect of compounds on host cell replication (CC50), was measured using Sulforhodamine B-staining and the spectrophotometric method originally developed for the NCIs's in vitro anti-cancer drug screening program (P. Skehan et al., J. Natl. Cancer. Inst. 82, 1107-1112 (1990)). The CC50 value is the concentration of compound that inhibited actively replicating cells by 50% of control respectively after two days of continuous treatment.

[5] = system: HEL; experiment: as above; assay type: cell-based, human; settings: at 50 μM
Method: as §2

[6] = system: HSV-2; experiment: HSV-2 plaque-elimination assay in Vero cells; assay type: cell-based, HSV-2 (strain 186); settings: 100 μM, data not shown
Method: (§3) Three types of antiviral assay were used for HSV studies. For plaque-elimination, Vero cells (70000 per cm^2) were infected with 50-100 PFU for 30 minutes with occasional agitation. The inoculate was replaced with medium containing 1% (v/v) fetal calf serum and supplemented with test agents as indicated (see below). After two days of culture, cells were processed using crystal violet staining and plaques were scored by visual examination (FIG. 3). For examination of anti-HSV activity in parallel cultures during biochemical experiments, the progeny virus obtained from cells and from the culture medium at 23 hours post-infection was determined by limiting dilution on Vero cells (FIG. 5A). Macroscopic viral plaques were scored after two days of incubation in medium containing 1% (w/v) carboxymethylcellulose and 0.5% (v/v) fetal calf serum. For ED50 measurements, the concentration of compound that reduced a single-cycle of viral yield by 50% relative to the control and under the specified condition was interpolated from dose-response graphs (FIG. 4, Table 1). Over the course of ten independent experiments, the mean cell-associated viral yield was 180 PFU per cell (SD=80) and 10 PFU per cell (SD=5) for HSV-1 and HSV-2 respectively. The percent viral release (into the culture medium) was 16 (SD=7) and 0.9 (SD=0.6) for HSV-1 and HSV-2 respectively. These virologic parameters were independent of viral load and serum concentration.

[7] = system: HCMV; experiment: HCMV cytopathogenicity (CPE) reduction assay in HEL cells; assay type: cell-based, HCMV (Towne)
Description: as §1

[8] = system: an assortment of human tumor cell lines; experiment: Replication of human tumor cell lines; assay type: cell-based; settings: at 50 μM, data not shown
Method: as §2

[9] = system: Vero; experiment: Vero cell growth inhibition (Sulforhodamine B protein-dye binding); assay type: cell-based, African green monkey
Method: as §2

[10] = as above; assay type: cell-based, African green monkey; settings: African green monkey; cell growth inhibition, two days of continuous treatment; read-out: CC50 Vero
Method: as §2

[11] = system: HSV-2; experiment: HSV-2 viral yield-reduction assay in Vero cells; assay type: cell-based, HSV-2 (strain 186); settings: Human alphaherpesvirus 2, Vero, read-out: ED50 HSV-2
Method: as §3

[12] = system: HSV-1; experiment: HSV-1 viral yield-reduction assay in Vero cells; assay type: cell-based, HSV-1 (KOS); settings: Human alphaherpesvirus 1, Vero, read-out: ED50 HSV-1
Method: as §3

5-hydroxynoracronicine
concentration blocking activation of EBV early antigen [1]: submicromolar concentration

COc1cc(O)c2c(=O)c3cc(OC)ccc3[nH]c2c1 [Compound 2, 3,7-dimethoxy-1-hydroxy-acridone]
pEC50 ([2]; Human betaherpesvirus 5, HEL, read-out: ED50 HCMV): 5.85
selectivity as anti-HCMV agent ([2]; cell replication vs HCMV ED50): greater than 35 fold
effect on cell morphology and cell viability [3]: no effect on cell morphology or cell viability
CC50 at 2 days [4]: > 50 µM
inhibition of HEL cell replication [5]: inactive
effect on HSV at highest concentration tested [6]: without effect on HSV
amelioration of HCMV cytopathogenicity after pre-treatment ([7]; HEL cells cultured 12 days in 0.5 μM before infection): some amelioration of HCMV cytopathogenicity
protective effect against HCMV cytopathogenicity after pre-treatment ([7]; HEL cells cultured 12 days in 5 μM before infection): even apparent in the absence of sustained treatment post-infection
protection against HCMV cytopathogenicity ([7]; higher viral loads, with or without pretreatment of HEL cells): did not protect against HCMV cytopathogenicity unless HEL cells were pretreated prior to viral infection
inhibition of human tumor cell line replication [8]: inactive
inhibition of Vero cell replication ([9]; at 50 μM): inactive
percent inhibition observed at the highest concentration tested, Vero growth ([9]; number in parenthesis, highest concentration tested): 7%
CC50 at 2 days [10]: > 50 µM
pEC50 [11]: < 4.30
pEC50 [12]: < 4.30
